This test relates to erythroid colonies (hematopoietic progenitors). Briefly: Hematopoietic CFC assay with anti-GpA-FITC staining, erythroid colony formation in cultures containing 5-FU. The note with it: erythroid colonies stained with anti-GPA-FITC, day 14, densitometry. In kind it is cell-based, Human. Here is the method:
Human BM, CB or MPB mononuclear cells were suspended in a methylcellulose-based culture medium containing cytokines (MethoCult™ H4434, StemCell Technologies) (StemCell Technologies Methocult™ Flyer; StemCell Technologies 2003 Catalogue pp. 86-125) at a concentration of between 1×10^4 and 1×10^5 cells per 1.1 mL of medium. The culture medium was then dispensed into 35 mm culture dishes using 3 mL syringes with blunt end needles, with 1.1 mL of medium per dish. All cultures were incubated for a total of 14 days at 37° C., 5% CO2, 100% humidity. Colonies were enumerated and classified by bright-field microscopy into the following categories based on size and morphology: CFU-E, BFU-E, CFU-GM, CFU-GEMM (StemCell Technologies Colony Atlas).
Standard CFC assays were prepared as described in example 1. […] After 14 days of culture at 37° C. the dishes were inspected using an inverted fluorescence microscope. […] The erythroid colonies were counted using bright field and fluorescence. Both methods gave very similar results: 27 colonies per dish by bright field illumination; 26 colonies by fluorescence.
A CFC-assay was set up as described in Example 2. […] Colonies were examined and photographed on day 14 and colony size and fluorescence intensity were analysed by densitometry.

SMILES strings stand for the structures.

On to `O=c1[nH]cc(F)c(=O)[nH]1` [5-FU, 5-Fluoro-Uracil], for which, under “versus cultures without 5-FU (FIG. 4A)”, the “size of fluorescent colonies, as measured by surface area and perimeter length” value was “decreased”. For the same compound, the “fluorescence intensity of colonies” value (versus cultures without 5-FU (FIG. 4B)) was “decreased”.

(Values after patent publication US20070059778A1, “Modified colony assay” (priority 2005, published 2007).)
